# In patent US12203088B2, “Root-secreted peptide PEP1 in rice and gene encoding the same and use thereof” (ZHEJIANG UNIVERSITY, priority 2021, dated 2025):
# Key:
# [1] = system: OsPEP1 overexpressing transgenic plants; assay: Exogenous PEP1 on root tips of OsPEP1 overexpressing transgenic plants; type: in vivo, rice Xiushui 134; settings: transgenic plant OE2, 10^−6 M PEP1 for 2 days
# From the text: (§1) E is the statistics of the apical meristem length indicated in D. Data are means±SD (n≥15 independent seedlings, three biological replicates). Different letters indicate significant differences (P<0.01, ANOVA, LSD test);
# F is the statistics of the cell length in the elongation zone indicated in D. Data are means±SD (n≥15 independent seedlings, three biological replicates). Different letters indicate significant differences (P<0.01, ANOVA, LSD test).
# In the obtained T2 OsPEP1 overexpressing transgenic rice plants, three representative plants (OE1, OE2, OE3) were chosen for phenotypic analysis. […] The relative expression levels of endogenous OsPEP1 in Xiushui 134 and OsPEP1 overexpressing transgenic plants (OE1, OE2, OE3) were analyzed by quantitative real-time PCR (primers: […] (SEQ ID NO: 9); […] (SEQ ID NO: 10)).
# rice seedlings = assay: Treatment of rice seedlings with synthetic PEP1, primary root length; type: in vivo, Oryza sativa L. ssp. Japonica cv. Xiushui134; settings: wild-type seedlings, different concentrations of synthetic PEP1, treatment from sowing for 7 days
# From the text: Different letters indicate significant differences (P<0.01, ANOVA, LSD test);
# rice root tips = assay: Root tip longitudinal sections of wild-type rice after PEP1 treatment; type: in vivo, Oryza sativa L. ssp. Japonica cv. Xiushui134; parameters: length of cells in the elongation zone of rice root tips: dose or concentration left out as unconfirmed; settings: wild-type plants
# [2] = system: OsPEP1 RNAi transgenic plants; assay: Exogenous PEP1 on root tips of OsPEP1 RNAi transgenic plants; type: in vivo, rice Xiushui 134; settings: transgenic plant Ri2, 10^−6 M PEP1 for 2 days
# From the text: D is the longitudinal phenotype of the root tip elongation zone (top) and meristem (bottom) of the wild-type WT and the transgenic plant Ri2 […] treated with 10^−6 M PEP1 for 2 days. Bar=100 μm;
# as §1
# F is the statistics of cell length in the elongation zone indicated in D. Data are means±SD (n≥15 independent seedlings, three biological replicates). Different letters indicate significant differences (P<0.01, ANOVA, LSD test).
# In the obtained T2 OsPEP1 RNAi transgenic plants, three representative plants (Ri1, Ri2, Ri3) were selected for phenotypic analysis. […] The relative expression levels of endogenous OsPEP1 in Xiushui 134 and those OsPEP1 RNAi transgenic plants (Ri1, Ri2, Ri3) were analyzed by quantitative real-time PCR (primers: […] (SEQ ID NO: 9); […] (SEQ ID NO: 10)). […] Additionally, exogenous application of PEP1 could restore the root tip defected phenotype of OsPEP1 RNAi transgenic plants to the Xiushui 134 level (D-F in FIG. 5).
substance,measurement,setting,value
"Ser-Asp-Phe-Asp-Arg (SDFDR; Amino acid sequence of PEP1) [rice root-secreted peptide of five amino acids, artificially synthesized for exogenous application]",restoration of root tip defected phenotype to the Xiushui 134 level,[1],could not restore
same,rice primary root elongation,rice seedlings,significantly inhibited rice primary root elongation
same,length of the meristem of rice root tips,rice root tips; 106 M PEP1 for 2 days,significantly shortened
same,length of cells in the elongation zone of rice root tips,rice root tips; PEP1 for 2 days,significantly shortened
same,changes in the quiescent center,rice root tips; root section after PEP1 treatment,no significant changes
same,restoration of root tip defected phenotype to the Xiushui 134 level,[2],could restore
